Measured values from ChEMBL document CHEMBL1201862, “PubChem BioAssay data set” (2004).
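Dose response: 5 concentrations. Exposure: 48 h. Format: 96-well plates. Endpoint: linear interpolation; highest concentration if not reached. GI50 = concentration required for 50% inhibition of growth.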 Active and inactive are the calls of the source. Rule as the data show it: active = GI50 up to about 1.1 µM and inactive = higher.

How the values were obtained:
Experiment in all cases: growth of human tumour cells (NCI), 48 h
XF498 = test system: XF498
DMS-114 = test system: DMS-114
DLD-1 = test system: DLD-1
DMS-273 = test system: DMS-273
LXFL 529 = test system: LXFL 529
M19-MEL = test system: M19-MEL
SNB-78 = test system: SNB-78
HOP-18 = test system: HOP-18
RXF 631 = test system: RXF 631

SMILES	GI50 (XF498)	GI50 (DMS-114)	GI50 (DLD-1)	GI50 (DMS-273)	GI50 (LXFL 529)	GI50 (M19-MEL)	GI50 (SNB-78)	GI50 (HOP-18)	GI50 (RXF 631)
COC1(C)C(=O)N2C1N(C(=O)OCc1ccccc1)CC2(C)C (stereo unspecified)	> 100 µM (inactive)	> 100 µM (inactive)	> 100 µM (inactive)	> 100 µM (inactive)	> 100 µM (inactive)	> 100 µM (inactive)			
CC[C@@]1(OC(=O)C(N)CCCCN)C(=O)OCc2c1cc1n(c2=O)Cc2cc3ccccc3nc2-1 (stereo partly specified)	0.201 µM (active)	< 0.0157 µM (active)	0.494 µM (active)	< 0.01 µM (active)	0.372 µM (active)	0.0619 µM (active)	0.372 µM (active)	0.0785 µM (active)	
Cc1[nH]c2ccccc2c1C(=O)/C=C/c1ccccc1O	> 100 µM (inactive)		> 100 µM (inactive)	> 100 µM (inactive)	> 100 µM (inactive)	> 100 µM (inactive)		> 100 µM (inactive)	
COc1ccc2c(c1)c(=O)c1c(NCCN(C)C)ccc3nnn2c31		3.64 µM (inactive)	1.71 µM (inactive)		2.91 µM (inactive)	6.61 µM (inactive)	4.35 µM (inactive)	0.504 µM (active)	2.21 µM (inactive)
Cc1ccc(S(=O)(=O)C(C#N)c2nc3ccccc3nc2-n2cccn2)cc1 (stereo unspecified)	> 100 µM (inactive)	> 100 µM (inactive)	> 100 µM (inactive)	> 100 µM (inactive)	> 100 µM (inactive)	> 100 µM (inactive)	> 100 µM (inactive)	86.9 µM (inactive)	
COc1ccc(C(c2ccc(C(C)C)cc(OC)c2=O)c2ccc(C(C)C)cc(OC)c2=O)cc1	20.4 µM (inactive)	12.3 µM (inactive)	6.3 µM (inactive)	14.8 µM (inactive)	14.5 µM (inactive)	14.1 µM (inactive)	13.2 µM (inactive)	25.4 µM (inactive)	15 µM (inactive)
COCCOCC(=O)N(CCn1ccc(NC(c2ccccc2)(c2ccccc2)c2ccccc2)nc1=O)CCn1cnc2nc(N)[nH]c(=O)c21		> 100 µM (inactive)	> 100 µM (inactive)	> 100 µM (inactive)	> 100 µM (inactive)		> 100 µM (inactive)	> 100 µM (inactive)	> 100 µM (inactive)
COC1OC(C)C2OC(C)(C)OC2C1OC(C)=O (stereo unspecified)	> 100 µM (inactive)		> 100 µM (inactive)	> 100 µM (inactive)	> 100 µM (inactive)	> 100 µM (inactive)	> 100 µM (inactive)	> 100 µM (inactive)	> 100 µM (inactive)
C=C1C(=O)OC2C=C(CCC(C)=O)C(C)C(OC(C)=O)CC12 (stereo unspecified)	12.9 µM (inactive)				0.447 µM (active)	14.6 µM (inactive)	7.94 µM (inactive)	11.7 µM (inactive)	
COC(=O)CCSC(=O)Nc1ccccc1Cl		> 100 µM (inactive)	> 100 µM (inactive)	> 100 µM (inactive)	> 100 µM (inactive)		> 100 µM (inactive)		
CN(C)CCNC(=O)c1cccc2cc3ccc4ccccc4c3nc12	0.056 µM (active)		0.0561 µM (active)	0.0224 µM (active)	0.128 µM (active)		0.182 µM (active)	0.205 µM (active)	
CC(=O)OC[C@@H]1[C@H]2CC(=O)O[C@H]2C[C@H]1OC(C)=O		> 100 µM (inactive)	> 100 µM (inactive)	> 100 µM (inactive)	> 100 µM (inactive)	> 100 µM (inactive)	> 100 µM (inactive)	> 100 µM (inactive)	
C[C@]12CC[C@H](OCCC#N)CC1=CC[C@@H]1C2CC[C@]2(C)/C(=N/OCCC#N)CCC12 (stereo partly specified)	3.4 µM (inactive)	5.12 µM (inactive)	> 100 µM (inactive)	42.2 µM (inactive)	> 74.6 µM (inactive)	> 100 µM (inactive)	22.8 µM (inactive)	> 100 µM (inactive)	
CCCCCCCCCCOC(=O)NCCC	18.2 µM (inactive)		34.8 µM (inactive)	20.6 µM (inactive)	38 µM (inactive)	34.5 µM (inactive)		26.7 µM (inactive)	27.6 µM (inactive)
Cc1ccc(/C=N/NS(=O)(=O)c2ccccc2)cc1	> 100 µM (inactive)	> 100 µM (inactive)	> 100 µM (inactive)	> 100 µM (inactive)	> 100 µM (inactive)		> 100 µM (inactive)	> 100 µM (inactive)	> 100 µM (inactive)
Nc1ccn([C@@H]2C=C(CO)[C@@H](O)[C@H]2O)c(=O)n1	6.22 µM (inactive)	0.417 µM (active)	0.151 µM (active)	0.256 µM (active)		0.308 µM (active)	3.28 µM (inactive)	8.09 µM (inactive)	
Cc1ccc(S(=O)(=O)N/N=C(\c2nc3ccc([N+](=O)[O-])cc3nc2O)C(O)c2ccccc2Cl)cc1 (stereo unspecified)		16.7 µM (inactive)	> 100 µM (inactive)	> 100 µM (inactive)	35.8 µM (inactive)	86.9 µM (inactive)	> 100 µM (inactive)	> 100 µM (inactive)	> 100 µM (inactive)
C=CCC1(CN(C)C)CC/C(=C\c2ccc(Cl)cc2)C1=O (stereo unspecified)	77.6 µM (inactive)	27.4 µM (inactive)	32.1 µM (inactive)	24.7 µM (inactive)	27.5 µM (inactive)	32.3 µM (inactive)	27.4 µM (inactive)	> 54.1 µM (inactive)	
O=C(CC1(O)C(=O)Nc2c(Cl)cc(Cl)cc21)c1ccc(F)cc1 (stereo unspecified)	14.4 µM (inactive)	23.9 µM (inactive)	46.8 µM (inactive)	38.2 µM (inactive)	31.9 µM (inactive)	19 µM (inactive)	83.9 µM (inactive)	72.1 µM (inactive)	32.5 µM (inactive)
CCOC(=O)C1S/C(=N\C(=N)N[N+](=O)[O-])N=C1C (stereo unspecified)	> 100 µM (inactive)	> 100 µM (inactive)	> 100 µM (inactive)		> 100 µM (inactive)	> 100 µM (inactive)		> 100 µM (inactive)	
Cc1cc(C)nc(NS(=O)(=O)c2ccc(NC(=O)c3cccc4cc5ccccc5nc34)cc2)n1	25.3 µM (inactive)		27.5 µM (inactive)	21.9 µM (inactive)	36.1 µM (inactive)	28.2 µM (inactive)	25.2 µM (inactive)		28.5 µM (inactive)
O=C(N/C(=C\c1cccc([N+](=O)[O-])c1)c1nc2c3c(ccc2[nH]1)C(=O)c1ccccc1C3=O)c1ccccc1	57.9 µM (inactive)	26.4 µM (inactive)	12.2 µM (inactive)		16 µM (inactive)		> 100 µM (inactive)	> 100 µM (inactive)	
COc1ccc(-c2oc3cc(O)c(OC)c(O)c3c(=O)c2O)cc1 [BETULETOL]	24.9 µM (inactive)		13.4 µM (inactive)	9.68 µM (inactive)	20.1 µM (inactive)	38.8 µM (inactive)	81.3 µM (inactive)	67.3 µM (inactive)	21.5 µM (inactive)
CC1(C)C(O)OC(O)C1(C)C (stereo unspecified)	47 µM (inactive)	> 100 µM (inactive)	52.5 µM (inactive)	70.5 µM (inactive)	74 µM (inactive)	> 100 µM (inactive)	> 100 µM (inactive)	49.1 µM (inactive)	61 µM (inactive)
O=C1C(=Cc2cccs2)C(=O)N(CCc2ccccc2)S(=O)(=O)N1CCc1ccccc1	> 50 µM (inactive)	10.4 µM (inactive)	> 50 µM (inactive)	> 50 µM (inactive)	> 50 µM (inactive)	> 50 µM (inactive)	> 50 µM (inactive)	> 50 µM (inactive)	
